Reference: paper PMC11292626, “5-Fluoroindole Reduces the Bacterial Burden in a Murine Model of Mycobacterium tuberculosis Infection” (ACS Omega, 2024)
≈ marks a conversion by molar mass, not a printed value. Entries after “also recorded” stand apart in the source; their conditions may differ. Read-outs that look alike come from different tables or passages of the source.

Legend:
[1] = Cellular viability (MTT and neutral red uptake), Vero; format: cell-based; conditions: African green monkey, Vero cells; 72 h of exposure; MTT and neutral red assays
Protocol: (§1) To assess the selectivity and potential toxicity of 5-FI, the effects on the viability of both HepG2 and Vero mammalian cell lines were evaluated. Cell viability was measured after 72 h of incubation with concentrations of 2, 5, and 20 μM of the compound. […] Two methods were used to assess the cell integrity: the MTT assay, which evaluates mitochondrial viability, and the neutral red assay, which assesses lysosomal functionality.
(§2) To determine the cellular viability, the cells were incubated with the 5-fluoro-1H-indole compound with 3-(4,5-dimethylthiazol-2-yl)-2,5-diphenyl-2H-tetrazolium bromide (MTT)[29] and neutral red uptake (NRU)[30] methods. […] The formed formazan crystals were dissolved with 100 μL of DMSO, and the absorbance of this solution was measured at 595 nm using an EZ Read 400 microplate reader (Biochrom, Holliston, MA, USA). The absorbance of the formazan crystals, diluted with DMSO, was directly proportional to the number of live cells with active mitochondria, corresponding to their viability. The mean value of absorbance of control wells was taken as 100% viability, and the values of treated cells were calculated as the percentage of vehicle control containing 0.5% DMSO. […]

Vero cells = assay: as above; format: cell-based; conditions: 2, 5 and 20 μM, 72 h; MTT and neutral red; listed as 5-FI
Protocol: as §1, §2

[2] = SOS Chromotest ref 25; cited from earlier work
[3] = Aqueous solubility at different pHs; format: physicochemical; conditions: thermodynamic from solid, 25 °C for 4 h
Protocol: The compound was weighed (1 mg) and solubilized in phosphate-buffered saline (PBS, pH 7.4), HCl 0.1 M (pH 1.2), and NH4HCO3 0.1 M (pH 9.2) to a final concentration of 1 mg/mL. The solutions were kept under stirring (250 rpm) for 4h at 37 °C. The solutions were filtered ([…] PDVA filter) and analyzed by HPLC. DMSO solution 1 mg/mL was used as the control for 100% soluble.

[4] = Parallel artificial membrane permeability assay (PAMPA); format: in vitro ADME; conditions: pH 7.4, 5 h
Protocol: 5-FI was quantified by HPLC-MS after a period of incubation and separated into two fractions by a permeable lipidic membrane. The result is expressed in velocity units of permeation (cm/s). The lipidic membrane is previously prepared with specific activation solutions that create a hydrophobic surface, simulating the intestinal epithelial tissue. To the donor aqueous phase (pH 7.4), 100 μM compound is added. To the previously prepared membrane is added the receptor aqueous phase (pH 7.4), and the mixture is incubated for 5h at room temperature with both receptor and donor aqueous phases in contact, separated just by the membrane. The compound transported by passive diffusion is measured by taking an aliquot of receptor solution and analyzing it by HPLC-MS/MS.

HepG2 cells = assay: Cellular viability (MTT and neutral red uptake), HepG2; format: cell-based; conditions: 2, 5 and 20 μM, 72 h; MTT and neutral red; listed as 5-FI
Protocol: as §1, §2

[5] = as above; format: cell-based; conditions: human, HepG2 cells; 72 h of exposure; MTT and neutral red assays
Protocol: as §1, §2

[6] = system: Mycobacterium tuberculosis H37Rv Strain; assay: MIC by resazurin reduction microplate assay (REMA), H37Rv; format: cell-based; conditions: Mtb H37Rv, REMA
[7] = Chemical stability in H2O at 37 °C, open and closed system (volatility assay)
[8] = Chemical stability at pH 1.2, 7.4 and 9.1; format: physicochemical; conditions: 37 °C for 24 h
Protocol: The compounds to be tested were prepared in a 100 μM solution and incubated at 37 °C for 24 h in three solutions representing the physiologically relevant pHs to drug administration: pH 1.2 (stomach), pH 7.4 (plasma), and pH 9.2 (intestinal tissue). The compounds were quantified by HPLC-MS/MS. The chemical stability experiments were carried out in triplicates to ensure reproducibility. The results were presented as percentage, comparing the signal at time zero of the assay, considering this measure 100%, with measurements after the incubation time. Alprenolol was used as the analytical control (data not shown). The results were presented as the percentage, comparing the signal at time zero of the assay (100%) with the signal produced by concentrations after the incubation period.

[9] = In vivo absorption assay: plasma concentration after gavage; conditions: 400 mg/kg, mice
[10] = Metabolic stability in rat liver microsomes; format: in vitro ADME
Protocol: The compound was incubated at 37 °C in the concentration of 20 μM with rat liver microsomal fractions in PBS solution at pH 7.4 solution. As previously described,[31] rat liver microsomal fractions were seeded by centrifugation at 9.000 × g. To the supernatant containing the postmithocondrial with cytosolic and membrane-bound enzymes, 4 μM 5-FI was added and incubated at 37 °C. The interaction between the compound in the incubation mixture and the enzyme containing NADPH at 1 mg/mL concentration was measured by HPLC-MS/MS technique to determine the in vitro compound consumption by the microsomal fractions at 0, 5, 15, and 30 min reaction (incubation) time. The intrinsic compound clearance was taken as the half-life, and the disappearance was compared with the positive control, verapamil(2 μM).

SMILES: Fc1ccc2[nH]ccc2c1 [Compound 1, 5-Fluoroindole]
- CC50 at 72 h [1]: > 20 µM
- cell viability / cytotoxicity in Vero (in words) (Vero cells): not altered; also recorded: no cytotoxicity; also recorded: low cytotoxicity
- genotoxicity [2]: does not exhibit genotoxicity
- solubility at 4 h ([3]; pH 1.2, simulated gastric fluid, 0.1 M HCl, read-out: aqueous solubility pH 1.2): > 550 µM
- solubility at 4 h ([3]; pH 9.1, aqueous buffer, 0.1 M NH4HCO3, read-out: aqueous solubility pH 9.1): 2.2 µM (≈ 0.297 µg/mL)
- solubility at 4 h ([3]; phosphate-buffered saline, pH 7.4, aqueous buffer, PBS, read-out: aqueous solubility pH 7.4): 3.5 µM (≈ 0.473 µg/mL)
- Papp at 5 h, 100 μM [4]: 2.4 ×10⁻⁶ cm/s
- cell viability / cytotoxicity in HepG2 (in words) (HepG2 cells): not altered; also recorded: no cytotoxicity; also recorded: low cytotoxicity
- CC50 at 72 h [5]: > 20 µM
- MIC ([6]; most frequent value of three independent assays): 4.7 µM
- MIC ([6]; Mycobacterium tuberculosis, H37RV): 0.63 µg/mL
- chemical stability, closed system ([7]; 0 h): 100 ± 0.0%
- chemical stability, open system ([7]; 0 h): 100 ± 0.0%
- chemical stability, closed system ([7]; 1 h): 97.5 ± 0.1%
- chemical stability, open system ([7]; 1 h): 97.5 ± 0.2%
- chemical stability, closed system ([7]; 2 h): 95.2 ± 0.0%
- chemical stability, open system ([7]; 2 h): 95.4 ± 0.2%
- chemical stability, closed system ([7]; 4 h): 93.3 ± 0.1%
- chemical stability, closed system ([7]; 6 h): 87.8 ± 0.0%
- chemical stability, open system ([7]; 6 h): 88.9 ± 0.2%
- chemical stability, closed system ([7]; 24 h): 86.1 ± 0.0%
- chemical stability, open system ([7]; 24 h): 89.1 ± 0.2%
- chemical stability, closed system ([7]; 48 h): 80.3 ± 0.1%
- chemical stability, open system ([7]; 48 h): 85.5 ± 0.1%
- chemical stability pH 1.2 ([8]; 0.1 M HCl): 37.2%
- chemical stability pH 9.1 ([8]; 0.1 M NH4HCO3, listed as 5-FI): 99.2%
- chemical stability pH 7.4 ([8]; PBS, listed as 5-FI): 58.5%
- concentration at 15 min ([9]; female, CF-1, mouse, in vivo, plasma concentration, mean ± SD, gavage 400 mg/kg, 15 min): 45.2 ± 14.8 µM
- concentration at 30 min ([9]; female, CF-1, mouse, in vivo, plasma concentration, mean ± SD, gavage 400 mg/kg): 79.4 ± 19.4 µM
- concentration at 30 min ([9]; female, CF-1, mouse, in vivo, po, plasma concentrations (range), oral 400 mg/kg, joint range over 5-FI and 5-FI.HCl): 79 to 82 µM
- plasma concentrations (range) ([9]; gavage 400 mg/kg, joint range over 5-FI and 5-FI.HCl, 15 and 30 min, listed as 5-FI): 32.6 to 82.3 µM
- CLint scaled ([10]; pH 7.4, read-out: metabolic stability Clint (intrinsic clearance)): 9 mL/min/kg
- half-life ([10]; pH 7.4, read-out: metabolic stability t1/2 (half-life)): 2.4 h
